This note sets out measurements from article PMC10584170, “Machine learning-based phenotypic imaging to characterise the targetable biology of Plasmodium falciparum male gametocytes for the development of transmission-blocking antimalarials” (PLOS Pathogens, 2023).

pIC50: −log10 of the molar value. Like-named read-outs stand apart in the source and are kept apart here. Some results are limits rather than exact numbers.

Series [1] has as its system P. falciparum female gametocytes. As to the kind of experiment: P. falciparum Dual Gamete Formation Assay (PfDGFA), female readout (Pfs25-positive female gametes). The format is cell-based, Plasmodium falciparum NF54. The settings on record: for Selectivity ratio F: HepG2 Tox50 versus female IC50; for inhibition at 2 µM / Average inhibition female (%) / % inhibition female (individual replicates) R1 / % inhibition female (individual replicates) R3 / % inhibition female (individual replicates) R4: 24h preincubation with gametocytes; for pIC50: PfDGFA, 24 h incubation with gametocytes before induction, female gamete readout, read-out: Female IC50; for HitlevelF: number of replicates with >50% inhibition in the female readout. In outline:
(§1)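 Two sex-specific readouts come from one well: male exflagellation centres recorded by brightfield video right after activation, and female gametes scored by Cy3-anti-Pfs25 fluorescence after 24 h at 28°C.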

The test system of series [2] is P. falciparum male gametocytes. Put plainly: P. falciparum Dual Gamete Formation Assay (PfDGFA), male readout (exflagellation). The format is cell-based, Plasmodium falciparum NF54. The settings on record: for Selectivity Ratio M: HepG2 Tox50 versus male IC50; for inhibition at 2 µM / Average inhibition male (%) / % inhibition male (individual replicates) R1 / % inhibition male (individual replicates) R3 / % inhibition male (individual replicates) R4: 24h preincubation with gametocytes; for pIC50: PfDGFA, 24 h incubation with gametocytes before induction, exflagellation readout, read-out: Male IC50; for HitlevelM: number of replicates with >50% inhibition in the male readout. In outline:
as §1

The next series relates to HepG2 cells. Put plainly: HepG2 cytotoxicity counter-screen. The settings on record: cytotoxic activity against HepG2 cells. (In general: The purpose of a counterscreen is to sort out artefacts and off-target activity.)
The mark [3] stands for this setting: Plasmodium falciparum, PfDGFA at 2µM, average of replicates, read-out: Average inhibition female (%).
Where [4] appears, read: Plasmodium falciparum, PfDGFA at 2µM, replicate R1, read-out: % inhibition female (individual replicates) R1.
Setting [5] is: Plasmodium falciparum, PfDGFA at 2µM, replicate R2, read-out: % inhibition female (individual replicates) R2.
The mark [6] stands for this setting: Plasmodium falciparum, PfDGFA at 2µM, replicate R3, read-out: % inhibition female (individual replicates) R3.
[7] abbreviates: Plasmodium falciparum, PfDGFA at 2µM, replicate R4, read-out: % inhibition female (individual replicates) R4.
[8] abbreviates: Plasmodium falciparum, PfDGFA at 2µM, average of replicates, read-out: Average inhibition male (%).
Setting [9] is: Plasmodium falciparum, PfDGFA at 2µM, replicate R1, read-out: % inhibition male (individual replicates) R1.
Setting [10] is: Plasmodium falciparum, PfDGFA at 2µM, replicate R2, read-out: % inhibition male (individual replicates) R2.
Where [11] appears, read: Plasmodium falciparum, PfDGFA at 2µM, replicate R3, read-out: % inhibition male (individual replicates) R3.
Setting [12] is: Plasmodium falciparum, PfDGFA at 2µM, replicate R4, read-out: % inhibition male (individual replicates) R4.
[13] abbreviates: Plasmodium falciparum, 2µM, average of replicates, read-out: Average inhibition female (%).
Setting [14] is: Plasmodium falciparum, 2µM, replicate R1, read-out: % inhibition female (individual replicates) R1.
[15] abbreviates: Plasmodium falciparum, 2µM, replicate R2, read-out: % inhibition female (individual replicates) R2.
Where [16] appears, read: Plasmodium falciparum, 2µM, replicate R3, read-out: % inhibition female (individual replicates) R3.
Setting [17] is: Plasmodium falciparum, 2µM, replicate R4, read-out: % inhibition female (individual replicates) R4.
Setting [18] is: Plasmodium falciparum, 2µM, average of replicates, read-out: Average inhibition male (%).
Setting [19] is: Plasmodium falciparum, 2µM, replicate R1, read-out: % inhibition male (individual replicates) R1.
Where [20] appears, read: Plasmodium falciparum, 2µM, replicate R2, read-out: % inhibition male (individual replicates) R2.
The mark [21] stands for this setting: Plasmodium falciparum, 2µM, replicate R4, read-out: % inhibition male (individual replicates) R4.
Where [22] appears, read: PfDGFA at 2µM, average of replicates.

For `COc1cc(-c2nc(C(C)(C)CN)[nH]c2-c2ccncc2)ccc1Br.Cl` [TCMDC-140674], the “Selectivity ratio F” value in series [1] worked out at 27.17. Besides, the inhibition at 2 µM in series [1] (setting [3]) was determined as 51.9%; in series [1] (setting [4]) it was 32.2%; in series [1] (setting [5]), 85.8%; in series [1] (setting [6]), 16.6%; in series [1] (setting [7]), 72.9%; in series [2] (setting [8]) it was 80.4%. For the same compound, the inhibition at 2 µM amounted to 38.8% in series [2] (setting [9]), 100% in series [2] (setting [10]), 83.7% in series [2] (setting [11]) and 98.9% in series [2] (setting [12]). Moreover, the pIC50 in series [1] (Plasmodium falciparum) is 5.79; in series [2] (Plasmodium falciparum) it was 5.75. In series [1] (2µM), the HitlevelF is given as 2. In series [2], the “Selectivity Ratio M” value stood at 24.67. In series [2] (2µM), this compound had a HitlevelM of 3. In the series with HepG2 cells, this compound had a Tox50 of 43.66 µM.
Take `N=C(N)Nc1nc(-c2ccc(NCc3ccc(CNc4cccc(-c5csc(NC(=N)N)n5)c4)cc3)cc2)cs1` [TCMDC-140699]: the “Average inhibition female (%)” value in series [1] (2µM, average of replicates) is recorded as 56.1%. In series [1] (2µM, replicate R1), the “% inhibition female (individual replicates) R1” value is on record as 34.4%. Also, the “% inhibition female (individual replicates) R3” value in series [1] (2µM, replicate R3) came out at 32.5%. In addition, the “% inhibition female (individual replicates) R4” value in series [1] (2µM, replicate R4) turned out to be 82.5%. Moreover, in series [1], the “Selectivity ratio F” value is 2.7 and the pIC50 is 5.66. For the same compound, in series [2] (2µM, average of replicates), the “Average inhibition male (%)” value stood at 99.5%. In addition, the “% inhibition male (individual replicates) R1” value in series [2] (2µM, replicate R1) amounted to 99.4%. For the same compound, the “% inhibition male (individual replicates) R3” value in series [2] (2µM, replicate R3) was found to be 98.0%. Further, in series [2] (2µM, replicate R4), the “% inhibition male (individual replicates) R4” value stood at 98.9%. Also, in series [2], the “Selectivity Ratio M” value is listed as 7.68 and the pIC50 was 6.12. In the series with HepG2 cells, this compound yielded a Tox50 of 5.85 µM.
Regarding `CN(C)CCCOc1ccc(CN2CCC(c3c[nH]c4ccc(NCC5CCCCC5)cc34)CC2)cc1.O=C(O)C(F)(F)F` [TCMDC-140737], in series [1] (2µM, average of replicates), the “Average inhibition female (%)” value was 62.2%. Further, the “% inhibition female (individual replicates) R1” value in series [1] (2µM, replicate R1) is recorded as 56.9%. Moreover, the “% inhibition female (individual replicates) R3” value in series [1] (2µM, replicate R3) worked out at 56.2%. Besides, the “% inhibition female (individual replicates) R4” value in series [1] (2µM, replicate R4) came to 81.1%. In series [1], the “Selectivity ratio F” value is on record as 1.66 and the negative-log IC50 (pIC50) is 5.31. In addition, the “Average inhibition male (%)” value in series [2] (2µM, average of replicates) came out at 93.4%. Further, the “% inhibition male (individual replicates) R1” value in series [2] (2µM, replicate R1) is 100.1%. Further, in series [2] (2µM, replicate R3), the “% inhibition male (individual replicates) R3” value amounted to 96.2%. Moreover, the “% inhibition male (individual replicates) R4” value in series [2] (2µM, replicate R4) amounted to 94.6%. In series [2], the “Selectivity Ratio M” value is listed as 6.13 and the pIC50 is 5.87. Moreover, in the series with HepG2 cells, the Tox50 is on record as 8.22 µM.
For the compound `CCN(CC)CCN(Cc1ccc(-c2ccc(C(F)(F)F)cc2)cc1)C(=O)Cn1cc(Cc2cnn(C)c2)c(=O)nc1/C=C/c1ccc(F)cc1.O=C(O)C(O)C(O)C(=O)O` [TCMDC-140741], the “Selectivity ratio F” value in series [1] was determined as 2.29. Also, the inhibition at 2 µM in series [1] (setting [13]) turned out to be 44.8%; in series [1] (setting [14]), 41.2%; in series [1] (setting [15]) it was 41.2%; in series [1] (setting [16]), 34.9%; in series [1] (setting [17]), 61.9%; in series [2] (setting [18]), 90.1%. In addition, the inhibition at 2 µM in series [2] (setting [19]) was 92.2%; in series [2] (setting [20]), 91.9%; in series [2] (Plasmodium falciparum, 2µM, replicate R3, read-out: % inhibition male (individual replicates) R3) it was 76%; in series [2] (setting [21]) it was 100%. Besides, the values for the pIC50 in series [1] (Plasmodium falciparum) and in series [2] (Plasmodium falciparum) were 5.15 and 6.07, respectively. Besides, the “Selectivity Ratio M” value in series [2] is recorded as 19.3. The Tox50 in the series with HepG2 cells is given as 16.37 µM.
As for `CC(C)(C)c1ccc(CNC(=O)c2ccc(CNC3CCC(N)CC3)s2)cc1` (centres unmarked) [TCMDC-140777], in series [1], the “Selectivity ratio F” value is recorded as 1.74 and the pIC50 was 5.27. Moreover, in series [1] (setting [22]), the “Average inhibition female (%)” value turned out to be 32.6%. The “% inhibition female (individual replicates) R1” value in series [1] (PfDGFA at 2µM, replicate R1) is listed as 23.5%. Besides, the “% inhibition female (individual replicates) R3” value in series [1] (PfDGFA at 2µM, replicate R3) turned out to be 26.9%. Also, in series [1] (PfDGFA at 2µM, replicate R4), the “% inhibition female (individual replicates) R4” value was determined as 56.3%. In series [1] (2µM), this compound returned a HitlevelF of 1. Also, in series [2], the “Selectivity Ratio M” value is 7.72 and the pIC50 was 5.92. In addition, the “Average inhibition male (%)” value in series [2] (setting [22]) was found to be 76.0%. Moreover, in series [2] (PfDGFA at 2µM, replicate R1), the “% inhibition male (individual replicates) R1” value is listed as 74.4%. For the same compound, the “% inhibition male (individual replicates) R3” value in series [2] (PfDGFA at 2µM, replicate R3) was found to be 56.4%. Moreover, the “% inhibition male (individual replicates) R4” value in series [2] (PfDGFA at 2µM, replicate R4) turned out to be 93.6%. Also, in series [2] (2µM), the HitlevelM came to 4. The Tox50 with HepG2 cells was 9.32 µM.
For `CCN(CC)CCOc1ccc(Nc2ncc3cc(-c4c(Cl)cccc4Cl)c(=O)n(C)c3n2)cc1` [TCMDC-140940], the “Selectivity ratio F” value in series [1] is listed as 0.27. Further, the inhibition at 2 µM was -0.6% in series [1] (setting [3]); -7.5% in series [1] (setting [4]); 1.2% in series [1] (setting [5]); -12% in series [1] (setting [6]); 15.8% in series [1] (setting [7]); 72.1% in series [2] (setting [8]). Also, the inhibition at 2 µM is 72.9% in series [2] (setting [9]), 64.9% in series [2] (setting [10]), 74% in series [2] (setting [11]) and 76.8% in series [2] (setting [12]). The pIC50 in series [1] (Plasmodium falciparum) is below 5.00; in series [2] (Plasmodium falciparum) it was 5.71. Further, the HitlevelF in series [1] (2µM) turned out to be 0. Also, in series [2], the “Selectivity Ratio M” value was 1.38. In series [2] (2µM), this compound yielded a HitlevelM of 4. The compound further showed a Tox50 with HepG2 cells of 2.66 µM.
Turning to `CCN(CC)CCN(Cc1ccc(-c2ccc(C(F)(F)F)cc2)cc1)C(=O)Cn1cc(Cc2cnn(C)c2)c(=O)nc1/C=C/c1cccc(F)c1F.O=C(O)C(O)C(O)C(=O)O` [TCMDC-140964], the “Selectivity ratio F” value in series [1] worked out at 3.16. For the same compound, the inhibition at 2 µM amounted to 36.2% in series [1] (setting [13]); 34% in series [1] (setting [14]); 38.6% in series [1] (setting [15]); 28.7% in series [1] (setting [16]); 43.5% in series [1] (setting [17]); 99.3% in series [2] (setting [18]). Besides, the inhibition at 2 µM in series [2] (setting [19]) stood at 98.8%; in series [2] (setting [20]), 97.8%; in series [2] (setting [21]) it was 101%. Further, the pIC50 is 5.39 in series [1] (Plasmodium falciparum) and 6.20 in series [2] (Plasmodium falciparum). Besides, the “Selectivity Ratio M” value in series [2] is 20.63. In addition, the Tox50 with HepG2 cells is 12.97 µM.

As a reminder, the inhibition is the relative decrease from the control value, in per cent. A word on the pIC50: it is the IC50 on a negative log10 scale, so that one unit is a factor of ten.
